Test results as given in the supplement of paper PMC11061612.

Key:
[1] = system: CESS (Acute Myeloid Leukemia); experiment: Bliss excess, mean over the matrix (fraction); higher = more synergy
Method in brief: (§1)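 After 24 hours at 37°C and 5% CO2 in 1536-well plates, cells in DMEM/F12 or RPMI plus 10% FBS received two-drug dose matrices for 72 hours. Viability came from CellTiter-Glo 2.0 luminescence and was scaled as inhibition, anchored at 0 by vehicle wells and at 1 by blank wells. Combination Emax is taken as the second-highest inhibition in the matrix, and Bliss excess as the observed combination effect less EA + EB − EA·EB, with EA and EB the single-agent effects.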

[2] = system: DMS-53 (Small Cell Lung Carcinoma); experiment: as above
Method in brief: as §1

[3] = system: TE-10 (Esophageal Squamous Cell Carcinoma); experiment: as above
Method in brief: as §1

[4] = system: GA-10 (Burkitt's Lymphoma); experiment: as above
Method in brief: as §1

KP-N-YN (Neuroblastoma) = experiment: as above
Method in brief: as §1

AU565 (Breast Carcinoma) [5] = experiment: as above
Method in brief: as §1

[6] = system: CA46 (Burkitt's Lymphoma); experiment: as above
Method in brief: as §1

[7] = system: HT55 (Colorectal Carcinoma); experiment: as above
Method in brief: as §1

[8] = system: NCI-H2228 (Lung Adenocarcinoma); experiment: as above
Method in brief: as §1

[9] = system: HCC1428 (Breast Carcinoma); experiment: as above
Method in brief: as §1

[10] = system: OACp4C (Esophageal Adenocarcinoma); experiment: as above
Method in brief: as §1

A101D (Melanoma) = experiment: as above
Method in brief: as §1

[11] = system: Jurkat (T-Lymphoblastic Leukemia); experiment: as above
Method in brief: as §1

[12] = system: CAL-27 (Oral Cavity Carcinoma); experiment: as above
Method in brief: as §1

[13] = system: NCI-H716 (Colorectal Carcinoma); experiment: as above
Method in brief: as §1

[14] = system: A253 (Head and Neck Carcinoma); experiment: as above
Method in brief: as §1

EW-16 (Ewing's Sarcoma) = experiment: as above
Method in brief: as §1

RH-41 (Rhabdomyosarcoma) = experiment: as above
Method in brief: as §1

[15] = system: EPLC-272H (Other Solid Carcinomas); experiment: as above
Method in brief: as §1

AU565 (Breast Carcinoma) [16] = experiment: combination Emax (second highest fraction inhibited in the dose matrix, 72 h); higher = more inhibition; extreme values may be limits of the assay
Method in brief: as §1
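For Bliss excess, mean over the matrix in this document: after 72 h of two-drug dosing.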

CN(CCO)CC[C@H](CSc1ccccc1)Nc1ccc(S(=O)(=O)NC(=O)c2ccc(N3CCC([C@@H](O)c4ccccc4-c4ccc(Cl)cc4)CC3)cc2)cc1S(=O)(=O)C(F)(F)F [AZD4320] + C=CCn1c(=O)c2cnc(Nc3ccc(N4CCN(C)CC4)cc3)nc2n1-c1cccc(C(C)(C)O)n1 [AZD1775] (first compound max 1 µM, partner max 1 µM)
Bliss excess [1]: 0.0873
Bliss excess [2]: 0.0817
Bliss excess [3]: -0.0084
Bliss excess [4]: -0.0167
Bliss excess (KP-N-YN (Neuroblastoma)): 0.0631
Bliss excess (AU565 (Breast Carcinoma) [5]): 0.0571
Bliss excess [6]: 0.0175
Bliss excess [7]: 0.0167
Bliss excess [8]: -0.0344
Bliss excess [9]: 0.0369
Bliss excess [10]: -0.0071
Bliss excess (A101D (Melanoma)): 0.14
Bliss excess [11]: 0.0568
Bliss excess [12]: -0.0226
Bliss excess [13]: 0.0021
Bliss excess [14]: 0.0503
Bliss excess (EW-16 (Ewing's Sarcoma)): 0.033
Bliss excess (RH-41 (Rhabdomyosarcoma)): 0.0873
Bliss excess [15]: -0.0069
combination Emax (AU565 (Breast Carcinoma) [16]): 0.829

CN(CCO)CC[C@H](CSc1ccccc1)Nc1ccc(S(=O)(=O)NC(=O)c2ccc(N3CCC([C@@H](O)c4ccccc4-c4ccc(Cl)cc4)CC3)cc2)cc1S(=O)(=O)C(F)(F)F [AZD4320] + CCN(CCO)CCCOc1ccc2c(Nc3cc(CC(=O)Nc4cccc(F)c4)[nH]n3)ncnc2c1 [AZD2811] (first compound max 1 µM, 7x7, partner max 1 µM)
Bliss excess [1]: 0.164
Bliss excess [2]: -0.0067
Bliss excess [3]: 0.038
Bliss excess [4]: -0.0203
Bliss excess (KP-N-YN (Neuroblastoma)): 0.0516
Bliss excess (AU565 (Breast Carcinoma) [5]): 0.0712
Bliss excess [6]: -0.0191
Bliss excess [7]: -0.0005
Bliss excess [8]: -0.0025
Bliss excess [9]: 0.16
Bliss excess [10]: 0.0011
Bliss excess (A101D (Melanoma)): 0.0418
Bliss excess [11]: 0.0105
Bliss excess [12]: 0.0635
Bliss excess [13]: -0.0242
Bliss excess [14]: 0.0364
Bliss excess (EW-16 (Ewing's Sarcoma)): 0.14
Bliss excess (RH-41 (Rhabdomyosarcoma)): 0.0867
Bliss excess [15]: 0.0873
combination Emax (AU565 (Breast Carcinoma) [16]): 0.34

CN(CCO)CC[C@H](CSc1ccccc1)Nc1ccc(S(=O)(=O)NC(=O)c2ccc(N3CCC([C@@H](O)c4ccccc4-c4ccc(Cl)cc4)CC3)cc2)cc1S(=O)(=O)C(F)(F)F [AZD4320] + C[C@@H]1COCCN1C2=NC(=NC(=C2)C3(CC3)[S@](=N)(=O)C)C4=C5C=CNC5=NC=C4 [AZD6738] (first compound max 1 µM, 7x7, partner max 10 µM)
Bliss excess [1]: 0.02
Bliss excess [2]: 0.0446
Bliss excess [3]: -0.0265
Bliss excess [4]: -0.0075
Bliss excess (KP-N-YN (Neuroblastoma)): -0.019
Bliss excess (AU565 (Breast Carcinoma) [5]): 0.0419
Bliss excess [6]: -0.0275
Bliss excess [7]: 0.0093
Bliss excess [8]: -0.0628
Bliss excess [9]: 0.0184
Bliss excess [10]: -0.036
Bliss excess (A101D (Melanoma)): 0.046
Bliss excess [11]: -0.0112
Bliss excess [12]: -0.0544
Bliss excess [13]: -0.0311
Bliss excess [14]: 0.0045
Bliss excess (EW-16 (Ewing's Sarcoma)): -0.101
Bliss excess (RH-41 (Rhabdomyosarcoma)): -0.0086
Bliss excess [15]: -0.0244
combination Emax (AU565 (Breast Carcinoma) [16]): 0.494

CN(CCO)CC[C@H](CSc1ccccc1)Nc1ccc(S(=O)(=O)NC(=O)c2ccc(N3CCC([C@@H](O)c4ccccc4-c4ccc(Cl)cc4)CC3)cc2)cc1S(=O)(=O)C(F)(F)F [AZD4320] + Cc1cc2ncnn2cc1Nc1ncc2c(n1)n(C1CCOCC1)c(=O)n2C [AZD7648] (first compound max 1 µM, 7x7, partner max 10 µM)
Bliss excess [1]: -0.0106
Bliss excess [2]: 0.0475
Bliss excess [3]: -0.0276
Bliss excess [4]: -0.0669
Bliss excess (KP-N-YN (Neuroblastoma)): -0.0238
Bliss excess (AU565 (Breast Carcinoma) [5]): -0.0132
Bliss excess [6]: -0.0061
Bliss excess [7]: -0.0404
Bliss excess [8]: -0.0231
Bliss excess [9]: 0.025
Bliss excess [10]: 0.0447
Bliss excess (A101D (Melanoma)): -0.0275
Bliss excess [11]: 0.0134
Bliss excess [12]: -0.0355
Bliss excess [13]: -0.0253
Bliss excess [14]: -0.0253
Bliss excess (EW-16 (Ewing's Sarcoma)): -0.0475
Bliss excess (RH-41 (Rhabdomyosarcoma)): 0.0309
Bliss excess [15]: -0.0318
combination Emax (AU565 (Breast Carcinoma) [16]): 0.327

Cc1cc2ncnn2cc1Nc1ncc2c(n1)n(C1CCOCC1)c(=O)n2C [AZD7648] + C=CCn1c(=O)c2cnc(Nc3ccc(N4CCN(C)CC4)cc3)nc2n1-c1cccc(C(C)(C)O)n1 [AZD1775] (first compound max 10 µM, partner max 1 µM)
Bliss excess [1]: 0.028
Bliss excess [2]: 0.0149
Bliss excess [3]: 0.0053
Bliss excess [4]: 0.037
Bliss excess (KP-N-YN (Neuroblastoma)): -0.0428
Bliss excess (AU565 (Breast Carcinoma) [5]): -0.043
Bliss excess [6]: -0.0416
Bliss excess [7]: -0.0027
Bliss excess [8]: 0.0384
Bliss excess [9]: 0.0179
Bliss excess [10]: -0.0303
Bliss excess (A101D (Melanoma)): 0.0275
Bliss excess [11]: 0.0183
Bliss excess [12]: 0.0108
Bliss excess [13]: 0.0448
Bliss excess [14]: 0.0493
Bliss excess (EW-16 (Ewing's Sarcoma)): -0.0471
Bliss excess (RH-41 (Rhabdomyosarcoma)): 0.0157
Bliss excess [15]: 0.0042
combination Emax (AU565 (Breast Carcinoma) [16]): 0.547

Cc1cc2ncnn2cc1Nc1ncc2c(n1)n(C1CCOCC1)c(=O)n2C [AZD7648] + CCN(CCO)CCCOc1ccc2c(Nc3cc(CC(=O)Nc4cccc(F)c4)[nH]n3)ncnc2c1 [AZD2811] (first compound max 10 µM, 7x7, partner max 1 µM)
Bliss excess [1]: 0.0195
Bliss excess [2]: -0.0061
Bliss excess [3]: 0.043
Bliss excess [4]: 0.112
Bliss excess (KP-N-YN (Neuroblastoma)): 0.0461
Bliss excess (AU565 (Breast Carcinoma) [5]): 0.0433
Bliss excess [6]: 0.0249
Bliss excess [7]: -0.0003
Bliss excess [8]: -0.0127
Bliss excess [9]: 0.0436
Bliss excess [10]: 0.0003
Bliss excess (A101D (Melanoma)): -0.0404
Bliss excess [11]: -0.01
Bliss excess [12]: 0.0107
Bliss excess [13]: 0.0292
Bliss excess [14]: 0.0411
Bliss excess (EW-16 (Ewing's Sarcoma)): 0.0436
Bliss excess (RH-41 (Rhabdomyosarcoma)): 0.0902
Bliss excess [15]: 0.0143
combination Emax (AU565 (Breast Carcinoma) [16]): 0.366

Cc1cc2ncnn2cc1Nc1ncc2c(n1)n(C1CCOCC1)c(=O)n2C [AZD7648] + CN(C)CCCOc1ccc(-c2ccc3ncc4c(c3c2)n(C2CCOCC2)c(=O)n4C)cn1 [AZD0156] (first compound max 10 µM, 7x7, partner max 1 µM)
Bliss excess [1]: -0.0013
Bliss excess [2]: -0.0087
Bliss excess [3]: -0.0023
Bliss excess [4]: -0.0067
Bliss excess (KP-N-YN (Neuroblastoma)): 0.0088
Bliss excess (AU565 (Breast Carcinoma) [5]): 0.0589
Bliss excess [6]: -0.0193
Bliss excess [7]: 0.0035
Bliss excess [8]: 0.0707
Bliss excess [9]: -0.0052
Bliss excess [10]: 0.0043
Bliss excess (A101D (Melanoma)): -0.0016
Bliss excess [11]: 0.0382
Bliss excess [12]: 0.0004
Bliss excess [13]: 0.0563
Bliss excess [14]: 0.0149
Bliss excess (EW-16 (Ewing's Sarcoma)): 0.0073
Bliss excess (RH-41 (Rhabdomyosarcoma)): 0.0197
Bliss excess [15]: -0.0251
combination Emax (AU565 (Breast Carcinoma) [16]): 0.593

Cc1cc2ncnn2cc1Nc1ncc2c(n1)n(C1CCOCC1)c(=O)n2C [AZD7648] + C[C@@H]1COCCN1C2=NC(=NC(=C2)C3(CC3)[S@](=N)(=O)C)C4=C5C=CNC5=NC=C4 [AZD6738] (first compound max 10 µM, 7x7, partner max 10 µM)
Bliss excess [1]: 0.0058
Bliss excess [2]: 0.0179
Bliss excess [3]: 0.0327
Bliss excess [4]: 0.0131
Bliss excess (KP-N-YN (Neuroblastoma)): -0.0083
Bliss excess (AU565 (Breast Carcinoma) [5]): 0.0393
Bliss excess [6]: 0.0493
Bliss excess [7]: 0.0268
Bliss excess [8]: -0.0156
Bliss excess [9]: -0.0086
Bliss excess [10]: -0.0284
Bliss excess (A101D (Melanoma)): -0.0272
Bliss excess [11]: 0.011
Bliss excess [12]: -0.0327
Bliss excess [13]: 0.0287
Bliss excess [14]: 0.0402
Bliss excess (EW-16 (Ewing's Sarcoma)): 0.0269
Bliss excess (RH-41 (Rhabdomyosarcoma)): 0.0098
Bliss excess [15]: -0.0093
combination Emax (AU565 (Breast Carcinoma) [16]): 0.416

Cc1cc2ncnn2cc1Nc1ncc2c(n1)n(C1CCOCC1)c(=O)n2C [AZD7648] + O=C(c1cc(Cc2n[nH]c(=O)c3ccccc23)ccc1F)N1CCN(C(=O)C2CC2)CC1 [Olaparib] (first compound max 10 µM, 7x7, partner max 10 µM)
Bliss excess [1]: -0.0101
Bliss excess [2]: -0.0266
Bliss excess [3]: 0.011
Bliss excess [4]: -0.0398
Bliss excess (KP-N-YN (Neuroblastoma)): 0.0332
Bliss excess (AU565 (Breast Carcinoma) [5]): -0.0658
Bliss excess [6]: -0.0518
Bliss excess [7]: -0.0497
Bliss excess [8]: -0.0728
Bliss excess [9]: -0.0562
Bliss excess [10]: -0.0203
Bliss excess (A101D (Melanoma)): -0.0478
Bliss excess [11]: 0.108
Bliss excess [12]: -0.0448
Bliss excess [13]: -0.0056
Bliss excess [14]: -0.0419
Bliss excess (EW-16 (Ewing's Sarcoma)): -0.0484
Bliss excess (RH-41 (Rhabdomyosarcoma)): -0.0293
Bliss excess [15]: 0.0608
combination Emax (AU565 (Breast Carcinoma) [16]): 0.213

COc1cc2c(cc1OCCCCCOc1cc3c(cc1OC)C(=O)N1C=C(C)C[C@H]1C=N3)N=C[C@@H]1CC(C)=CN1C2=O [SG3199] + O=C(c1cc(Cc2n[nH]c(=O)c3ccccc23)ccc1F)N1CCN(C(=O)C2CC2)CC1 [Olaparib] (first compound max 0.001 µM, 7x7, partner max 10 µM)
Bliss excess [1]: -0.0156
Bliss excess [2]: -0.0259
Bliss excess [3]: -0.0402
Bliss excess [4]: -0.0335
Bliss excess (KP-N-YN (Neuroblastoma)): -0.0387
Bliss excess (AU565 (Breast Carcinoma) [5]): -0.0315
Bliss excess [6]: -0.0357
Bliss excess [7]: -0.0358
Bliss excess [8]: -0.0607
Bliss excess [9]: -0.0676
Bliss excess [10]: -0.0268
Bliss excess (A101D (Melanoma)): -0.0365
Bliss excess [11]: 0.0874
Bliss excess [12]: -0.0664
Bliss excess [13]: -0.0322
Bliss excess [14]: -0.0426
Bliss excess (EW-16 (Ewing's Sarcoma)): -0.0066
Bliss excess (RH-41 (Rhabdomyosarcoma)): 0.0396
Bliss excess [15]: -0.0023
combination Emax (AU565 (Breast Carcinoma) [16]): 0.138
